Key:
Assay type in all cases: cell-based
Conditions in all cases: 24 hours of compound treatment
IKZF1 = biological target: T1, IKZF1 (Homo sapiens, UniProt Q13422+Q96SW2); test: Western-blot assay of substrate protein degradation in hPBMCs, IKZF1
T1 construct: endogenous in cells; host or cells: hPBMCs (Milecell Biotechnologies)
Description: (§1) After 24 hours of compounds treatment, cells were harvested and lysed in RIPA protein lysate containing protease inhibitors on ice for 30 min, followed by centrifugation. The supernatant was aspirated as the extracted total cell protein. The protein concentration of the supernatant was determined using the conventional BCA (Bicinchoninic Acid) assay. • (2) To the collected supernatant, 5X SDS sample loading buffer was added, followed by denaturation at 95°C for 5 minutes. The denatured samples were then separated by SDS-PAGE electrophoresis on a polyacrylamide gel, transferred onto a nitrocellulose membrane (0.45 µm NC membrane), blocked with blocking buffer at room temperature for 1 hour, and subjected to antibody incubation and development procedures according to the antibody manufacturer's instructions (Cell Signaling Technology Company). […]
(§2) Target protein remaining (%) refers to the percentage of target protein remaining in cells after treatment with protein degrader compounds.
(§3) Calculation method for target protein remaining (%): Use ImageJ software to measure grayscale values of Western blot bands from drug (protein degrader)-treated samples. The grayscale value of drug-treated bands is divided by that of internal control protein bands, and the resulting quotient is normalized to obtain the relative percentage of remaining target protein after protein degrader treatment. Target protein degradation rate(%) = 1−target protein remaining(%). [formula]

WEE1 = biological target: T2, WEE1 (Homo sapiens, UniProt P30291+Q96SW2); test: Western-blot assay of substrate protein degradation in hPBMCs, WEE1
T2 construct: endogenous in cells; host or cells: hPBMCs (Milecell Biotechnologies)
Description: as §1, §2, §3

IKZF3 = biological target: T3, IKZF3 (Homo sapiens, UniProt Q96SW2+Q9UKT9); test: Western-blot assay of substrate protein degradation in hPBMCs, IKZF3
T3 construct: endogenous in cells; host or cells: hPBMCs (Milecell Biotechnologies)
Description: as §1, §2, §3

GSPT1 = biological target: T4, GSPT1 (Homo sapiens, UniProt P15170+Q96SW2); test: Western-blot assay of substrate protein degradation in hPBMCs, GSPT1
T4 construct: endogenous in cells; host or cells: hPBMCs (Milecell Biotechnologies)
Description: as §1, §2, §3

CK1α = biological target: T5, CK1α (Homo sapiens, UniProt P48729+Q96SW2); test: Western-blot assay of substrate protein degradation in hPBMCs, CK1α
T5 construct: endogenous in cells; host or cells: hPBMCs (Milecell Biotechnologies)
Description: as §1, §2, §3

IKZF2 = biological target: T6, IKZF2 (Homo sapiens, UniProt Q96SW2+Q9UKS7); test: Western-blot assay of substrate protein degradation in hPBMCs, IKZF2
T6 construct: endogenous in cells; host or cells: hPBMCs (Milecell Biotechnologies)
Description: as §1, §2, §3

[1] = 50 nM and 500 nM tested (concentration behind the class not stated)
[2] = compounds tested at 50 nM and 500 nM (concentration of the table not stated)

T3 sequence (Q9UKT9 whole entry): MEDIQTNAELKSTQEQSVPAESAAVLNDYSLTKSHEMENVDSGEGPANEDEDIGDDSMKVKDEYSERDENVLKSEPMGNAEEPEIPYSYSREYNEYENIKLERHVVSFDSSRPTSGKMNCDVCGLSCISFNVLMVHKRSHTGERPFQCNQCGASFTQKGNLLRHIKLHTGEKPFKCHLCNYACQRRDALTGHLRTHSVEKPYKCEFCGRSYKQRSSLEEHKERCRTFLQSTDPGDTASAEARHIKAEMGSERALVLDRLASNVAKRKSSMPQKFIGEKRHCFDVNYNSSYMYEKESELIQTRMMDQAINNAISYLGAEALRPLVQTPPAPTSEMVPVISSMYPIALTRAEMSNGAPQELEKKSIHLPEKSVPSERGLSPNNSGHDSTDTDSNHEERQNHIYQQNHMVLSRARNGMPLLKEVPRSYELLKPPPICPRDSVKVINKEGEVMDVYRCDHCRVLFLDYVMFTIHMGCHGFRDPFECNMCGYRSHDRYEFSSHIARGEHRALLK
T3 sequence (Q96SW2 whole entry): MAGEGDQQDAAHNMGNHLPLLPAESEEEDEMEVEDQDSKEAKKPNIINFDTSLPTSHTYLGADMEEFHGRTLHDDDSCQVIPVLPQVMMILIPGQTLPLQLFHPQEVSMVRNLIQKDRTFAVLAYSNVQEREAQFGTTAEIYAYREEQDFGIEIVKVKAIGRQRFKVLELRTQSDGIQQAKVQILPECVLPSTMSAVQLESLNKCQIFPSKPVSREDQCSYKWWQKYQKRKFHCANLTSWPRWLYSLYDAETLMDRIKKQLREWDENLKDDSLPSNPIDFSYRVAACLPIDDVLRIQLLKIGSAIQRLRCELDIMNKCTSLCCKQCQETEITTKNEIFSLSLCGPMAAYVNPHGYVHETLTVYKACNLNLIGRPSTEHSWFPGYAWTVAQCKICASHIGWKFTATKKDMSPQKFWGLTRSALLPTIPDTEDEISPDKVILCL
T3 sequence (Q16531 whole entry partner): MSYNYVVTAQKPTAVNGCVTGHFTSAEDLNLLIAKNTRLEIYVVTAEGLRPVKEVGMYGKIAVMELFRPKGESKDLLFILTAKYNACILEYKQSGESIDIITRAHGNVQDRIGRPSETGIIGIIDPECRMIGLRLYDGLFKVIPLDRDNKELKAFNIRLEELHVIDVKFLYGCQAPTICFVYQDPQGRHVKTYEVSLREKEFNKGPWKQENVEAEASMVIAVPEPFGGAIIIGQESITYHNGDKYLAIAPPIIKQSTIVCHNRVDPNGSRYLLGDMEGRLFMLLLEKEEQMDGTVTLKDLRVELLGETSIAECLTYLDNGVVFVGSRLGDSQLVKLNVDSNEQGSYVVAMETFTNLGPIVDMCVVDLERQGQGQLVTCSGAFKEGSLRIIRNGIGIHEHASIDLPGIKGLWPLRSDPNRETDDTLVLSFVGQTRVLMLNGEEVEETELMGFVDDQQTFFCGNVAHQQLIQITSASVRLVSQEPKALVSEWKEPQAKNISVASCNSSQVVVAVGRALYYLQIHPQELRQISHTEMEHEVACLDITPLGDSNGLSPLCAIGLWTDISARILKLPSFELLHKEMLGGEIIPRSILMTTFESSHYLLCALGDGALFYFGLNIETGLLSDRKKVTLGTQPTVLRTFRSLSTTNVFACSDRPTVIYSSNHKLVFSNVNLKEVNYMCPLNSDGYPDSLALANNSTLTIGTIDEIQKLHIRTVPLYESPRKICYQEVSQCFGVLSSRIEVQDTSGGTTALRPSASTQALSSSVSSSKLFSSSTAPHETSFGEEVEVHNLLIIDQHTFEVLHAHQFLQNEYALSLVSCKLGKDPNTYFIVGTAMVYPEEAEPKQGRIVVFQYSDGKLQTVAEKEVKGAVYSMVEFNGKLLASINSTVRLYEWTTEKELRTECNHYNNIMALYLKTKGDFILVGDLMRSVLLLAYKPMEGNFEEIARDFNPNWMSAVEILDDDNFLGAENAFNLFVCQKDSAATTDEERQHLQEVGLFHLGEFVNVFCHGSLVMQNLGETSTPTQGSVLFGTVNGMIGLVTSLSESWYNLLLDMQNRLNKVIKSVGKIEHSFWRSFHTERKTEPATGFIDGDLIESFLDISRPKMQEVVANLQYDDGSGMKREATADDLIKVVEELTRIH
T2 sequence (P30291 whole entry): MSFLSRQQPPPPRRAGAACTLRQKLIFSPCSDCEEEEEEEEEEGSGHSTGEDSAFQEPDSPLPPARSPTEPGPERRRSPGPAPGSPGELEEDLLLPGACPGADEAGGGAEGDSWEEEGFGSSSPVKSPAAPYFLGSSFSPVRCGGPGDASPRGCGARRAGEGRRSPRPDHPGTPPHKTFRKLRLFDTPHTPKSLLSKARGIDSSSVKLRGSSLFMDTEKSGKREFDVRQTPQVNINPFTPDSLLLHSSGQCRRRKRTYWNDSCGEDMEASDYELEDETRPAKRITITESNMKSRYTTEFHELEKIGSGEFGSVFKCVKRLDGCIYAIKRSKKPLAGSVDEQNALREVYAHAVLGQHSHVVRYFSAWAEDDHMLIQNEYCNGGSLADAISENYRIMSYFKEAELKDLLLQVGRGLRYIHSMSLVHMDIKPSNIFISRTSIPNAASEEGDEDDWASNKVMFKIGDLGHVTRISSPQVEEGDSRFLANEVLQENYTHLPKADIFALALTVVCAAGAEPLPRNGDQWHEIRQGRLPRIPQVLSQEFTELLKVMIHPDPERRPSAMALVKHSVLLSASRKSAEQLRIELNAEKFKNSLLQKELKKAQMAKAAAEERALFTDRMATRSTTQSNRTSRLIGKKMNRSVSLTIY
T2 sequence (Q96SW2 whole entry): as the sequence (Q96SW2 whole entry) above
T2 sequence (Q16531 whole entry partner): as the sequence (Q16531 whole entry partner) above
T6 sequence (Q9UKS7 whole entry): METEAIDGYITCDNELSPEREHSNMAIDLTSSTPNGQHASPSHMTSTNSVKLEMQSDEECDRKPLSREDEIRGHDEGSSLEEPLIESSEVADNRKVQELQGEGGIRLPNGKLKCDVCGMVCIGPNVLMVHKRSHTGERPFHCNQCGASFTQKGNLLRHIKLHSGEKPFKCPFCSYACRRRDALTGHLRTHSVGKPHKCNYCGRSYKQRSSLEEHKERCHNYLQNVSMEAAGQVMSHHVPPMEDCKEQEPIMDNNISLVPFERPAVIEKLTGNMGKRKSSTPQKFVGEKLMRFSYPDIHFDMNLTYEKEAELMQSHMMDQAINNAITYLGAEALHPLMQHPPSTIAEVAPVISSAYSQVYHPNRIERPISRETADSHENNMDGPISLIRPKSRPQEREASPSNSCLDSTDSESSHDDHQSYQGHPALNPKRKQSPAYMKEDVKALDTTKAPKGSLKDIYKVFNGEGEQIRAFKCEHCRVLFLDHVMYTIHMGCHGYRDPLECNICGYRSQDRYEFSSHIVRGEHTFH
T6 sequence (Q96SW2 whole entry): as the sequence (Q96SW2 whole entry) above
T6 sequence (Q16531 whole entry partner): as the sequence (Q16531 whole entry partner) above
T4 sequence (P15170 whole entry): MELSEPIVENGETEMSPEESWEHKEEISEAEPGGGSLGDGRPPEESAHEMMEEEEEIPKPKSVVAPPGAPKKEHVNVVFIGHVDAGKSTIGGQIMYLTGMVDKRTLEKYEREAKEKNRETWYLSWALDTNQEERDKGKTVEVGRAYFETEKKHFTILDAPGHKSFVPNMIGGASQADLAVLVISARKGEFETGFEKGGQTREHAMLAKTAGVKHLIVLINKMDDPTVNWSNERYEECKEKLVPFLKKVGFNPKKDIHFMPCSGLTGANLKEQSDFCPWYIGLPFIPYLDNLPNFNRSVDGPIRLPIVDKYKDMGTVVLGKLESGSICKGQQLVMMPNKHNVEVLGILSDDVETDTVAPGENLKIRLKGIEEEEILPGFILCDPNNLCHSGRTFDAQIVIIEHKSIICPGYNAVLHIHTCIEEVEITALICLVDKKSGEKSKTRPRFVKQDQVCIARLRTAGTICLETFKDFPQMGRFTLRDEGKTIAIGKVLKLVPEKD
T4 sequence (Q96SW2 whole entry): as the sequence (Q96SW2 whole entry) above
T4 sequence (Q16531 whole entry partner): as the sequence (Q16531 whole entry partner) above
T5 sequence (P48729 whole entry): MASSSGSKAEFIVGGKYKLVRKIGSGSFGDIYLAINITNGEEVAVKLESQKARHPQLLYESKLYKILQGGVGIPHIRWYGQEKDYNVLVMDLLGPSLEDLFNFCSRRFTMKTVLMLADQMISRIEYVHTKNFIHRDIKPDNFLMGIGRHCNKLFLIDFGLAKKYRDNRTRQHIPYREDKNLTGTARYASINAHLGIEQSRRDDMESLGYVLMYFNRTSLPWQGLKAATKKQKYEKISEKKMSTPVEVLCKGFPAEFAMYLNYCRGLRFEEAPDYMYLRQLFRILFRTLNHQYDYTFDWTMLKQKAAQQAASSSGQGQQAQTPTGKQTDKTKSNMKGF
T5 sequence (Q96SW2 whole entry): as the sequence (Q96SW2 whole entry) above
T5 sequence (Q16531 whole entry partner): as the sequence (Q16531 whole entry partner) above

Row | SMILES | IKZF 1 substrate protein remaining % (IKZF1; [1]) | Weel substrate protein remaining % (WEE1; [1]) | IKZF3 substrate protein remaining % (IKZF3; [1]) | GSPT1 substrate protein remaining % (GSPT1; [1]) | CK1a substrate protein remaining % (CK1α; [1]) | IKZF2 substrate protein remaining % (IKZF2; [1]) | IKZF 1 substrate protein remaining % (IKZF1; [2]) | Weel substrate protein remaining % (WEE1; [2]) | IKZF3 substrate protein remaining % (IKZF3; [2]) | GSPT1 substrate protein remaining % (GSPT1; [2]) | CK1a substrate protein remaining % (CK1α; [2]) | IKZF2 substrate protein remaining % (IKZF2; [2])
1 | O=C1CCC(N2C(=O)c3ccc(CN4CCCN(c5cccc(Cl)c5Cl)CC4)cc3C2=O)C(=O)N1 (stereo not drawn) [GT-06695, 5-((4-(2,3-dichlorophenyl)-1,4-diazepan-1-yl)methyl)-2-(2,6-dioxopiperidin-3-yl)isoindoline-1,3-dione] | B (80%< substrate protein remaining %≤ 100%) | B (80%< substrate protein remaining %≤ 100%) | B (80%< substrate protein remaining %≤ 100%) | A (0% ≤ substrate protein remaining % ≤ 80%) | B (80%< substrate protein remaining %≤ 100%) | A (0% ≤ substrate protein remaining % ≤ 80%) | – | – | – | – | – | –
2 | Cc1ccc(Cl)cc1N1CCN(Cc2ccc3c(c2)C(=O)N(C2CCC(=O)NC2=O)C3=O)CC1 (stereo not drawn) [GT-06367, 5-((4-(5-chloro-2-methylphenyl)piperazin-1-yl)methyl)-2-(2,6-dioxopiperidin-3-yl)isoindoline-1,3-dione] | B (80%< substrate protein remaining %≤ 100%) | A (0% ≤ substrate protein remaining % ≤ 80%) | A (0% ≤ substrate protein remaining % ≤ 80%) | A (0% ≤ substrate protein remaining % ≤ 80%) | B (80%< substrate protein remaining %≤ 100%) | A (0% ≤ substrate protein remaining % ≤ 80%) | – | – | – | – | – | –
3 | O=C1CCC(N2C(=O)c3ccc(CN4CCC(c5ncnc6sccc56)CC4)cc3C2=O)C(=O)N1 (stereo not drawn) [GT-06591, 2-(2,6-dioxopiperidin-3-yl)-5-((4-(thieno[2,3-d]pyrimidin-4-yl)piperidin-1-yl)methyl)isoindoline-1,3-dione] | B (80%< substrate protein remaining %≤ 100%) | A (0% ≤ substrate protein remaining % ≤ 80%) | B (80%< substrate protein remaining %≤ 100%) | A (0% ≤ substrate protein remaining % ≤ 80%) | B (80%< substrate protein remaining %≤ 100%) | B (80%< substrate protein remaining %≤ 100%) | – | – | – | – | – | –
4 | O=C1CCC(N2C(=O)c3ccc(CN4CCN(c5c(Cl)cccc5Cl)CC4)cc3C2=O)C(=O)N1 (stereo not drawn) [GT-06297, 5-((4-(2,6-dichlorophenyl)piperazin-1-yl)methyl)-2-(2,6-dioxopiperidin-3-yl)isoindoline-1,3-dione] | B (80%< substrate protein remaining %≤ 100%) | B (80%< substrate protein remaining %≤ 100%) | B (80%< substrate protein remaining %≤ 100%) | A (0% ≤ substrate protein remaining % ≤ 80%) | B (80%< substrate protein remaining %≤ 100%) | B (80%< substrate protein remaining %≤ 100%) | – | – | – | – | – | –
5 | O=C1CCC(N2C(=O)c3ccc(CN4CCC(c5noc6cc(F)ccc56)CC4)cc3C2=O)C(=O)N1 (stereo not drawn) [GT-04771, 2-(2,6-dioxopiperidin-3-yl)-5-((4-(6-fluorobenzo[d]isoxazol-3-yl)piperidin-1-yl)methyl)isoindoline-1,3-dione] | – | – | – | – | – | – | B (80%< substrate protein remaining %≤ 100%) | A (0% ≤ substrate protein remaining % ≤ 80%) | B (80%< substrate protein remaining %≤ 100%) | A (0% ≤ substrate protein remaining % ≤ 80%) | A (0% ≤ substrate protein remaining % ≤ 80%) | B (80%< substrate protein remaining %≤ 100%)
6 | O=C1CCC(N2C(=O)c3ccc(CN4CCC(c5ccc(Cl)cc5)CC4)cc3C2=O)C(=O)N1 (stereo not drawn) [GT-06372, 5-((4-(4-chlorophenyl)piperidin-1-yl)methyl)-2-(2,6-dioxopiperidin-3-yl)isoindoline-1,3-dione] | A (0% ≤ substrate protein remaining % ≤ 80%) | A (0% ≤ substrate protein remaining % ≤ 80%) | B (80%< substrate protein remaining %≤ 100%) | A (0% ≤ substrate protein remaining % ≤ 80%) | B (80%< substrate protein remaining %≤ 100%) | A (0% ≤ substrate protein remaining % ≤ 80%) | – | – | – | – | – | –
7 | O=C1CCC(N2C(=O)c3ccc(CN4C[C@H]5C[C@@H]4CN5c4cccc(Cl)c4Cl)cc3C2=O)C(=O)N1 (stereo partly drawn) [GT-06690, 5-(((1R,4R)-5-(2,3-dichlorophenyl)-2,5-diazabicyclo[2.2.1]heptan-2-yl)methyl)-2-(2,6-dioxopiperidin-3-yl)isoindoline-1,3-dione] | B (80%< substrate protein remaining %≤ 100%) | B (80%< substrate protein remaining %≤ 100%) | A (0% ≤ substrate protein remaining % ≤ 80%) | A (0% ≤ substrate protein remaining % ≤ 80%) | B (80%< substrate protein remaining %≤ 100%) | B (80%< substrate protein remaining %≤ 100%) | – | – | – | – | – | –
8 | Cc1ccsc1C1CCN(Cc2ccc3c(c2)C(=O)N(C2CCC(=O)NC2=O)C3=O)CC1 (stereo not drawn) [GT-06280, 2-(2,6-dioxopiperidin-3-yl)-5-((4-(3-methylthiophen-2-yl)piperidin-1-yl)methyl)isoindoline-1,3-dione] | B (80%< substrate protein remaining %≤ 100%) | B (80%< substrate protein remaining %≤ 100%) | B (80%< substrate protein remaining %≤ 100%) | A (0% ≤ substrate protein remaining % ≤ 80%) | B (80%< substrate protein remaining %≤ 100%) | B (80%< substrate protein remaining %≤ 100%) | – | – | – | – | – | –
9 | O=C1CCC(N2C(=O)c3ccc(CN4CCN(c5c[nH]c6ncccc56)CC4)cc3C2=O)C(=O)N1 (stereo not drawn) [GT-06707, 5-((4-(1H-pyrrolo[2,3-b]pyridin-3-yl)piperazin-1-yl)methyl)-2-(2,6-dioxopiperidin-3-yl)isoindoline-1,3-dione] | B (80%< substrate protein remaining %≤ 100%) | A (0% ≤ substrate protein remaining % ≤ 80%) | A (0% ≤ substrate protein remaining % ≤ 80%) | A (0% ≤ substrate protein remaining % ≤ 80%) | A (0% ≤ substrate protein remaining % ≤ 80%) | B (80%< substrate protein remaining %≤ 100%) | – | – | – | – | – | –
10 | Cc1ccc(C2CCN(Cc3ccc4c(c3)C(=O)N(C3CCC(=O)NC3=O)C4=O)CC2)s1 (stereo not drawn) [GT-06262, 2-(2,6-dioxopiperidin-3-yl)-5-((4-(5-methylthiophen-2-yl)piperidin-1-yl)methyl)isoindoline-1,3-dione] | B (80%< substrate protein remaining %≤ 100%) | B (80%< substrate protein remaining %≤ 100%) | B (80%< substrate protein remaining %≤ 100%) | A (0% ≤ substrate protein remaining % ≤ 80%) | A (0% ≤ substrate protein remaining % ≤ 80%) | A (0% ≤ substrate protein remaining % ≤ 80%) | – | – | – | – | – | –
11 | O=C1CCC(N2C(=O)c3ccc(CN4CCN(c5cccc(Br)c5)CC4)cc3C2=O)C(=O)N1 (stereo not drawn) [GT-06289, 5-((4-(3-bromophenyl)piperazin-1-yl)methyl)-2-(2,6-dioxopiperidin-3-yl)isoindoline-1,3-dione] | B (80%< substrate protein remaining %≤ 100%) | B (80%< substrate protein remaining %≤ 100%) | B (80%< substrate protein remaining %≤ 100%) | A (0% ≤ substrate protein remaining % ≤ 80%) | B (80%< substrate protein remaining %≤ 100%) | B (80%< substrate protein remaining %≤ 100%) | – | – | – | – | – | –
12 | O=C1CCC(N2C(=O)c3ccc(CN4CCN(c5cnccn5)CC4)cc3C2=O)C(=O)N1 (stereo not drawn) [GT-07060, 2-(2,6-dioxopiperidin-3-yl)-5-((4-(pyrazin-2-yl)piperazin-1-yl)methyl)isoindoline-1,3-dione] | A (0% ≤ substrate protein remaining % ≤ 80%) | A (0% ≤ substrate protein remaining % ≤ 80%) | A (0% ≤ substrate protein remaining % ≤ 80%) | A (0% ≤ substrate protein remaining % ≤ 80%) | A (0% ≤ substrate protein remaining % ≤ 80%) | A (0% ≤ substrate protein remaining % ≤ 80%) | – | – | – | – | – | –
